Measured values published in US9637490B2, “Antifungal 5,6-dihydro-4-[(difluoroethyl)phenyl]-4H-pyrrolo[1,2-α][1,4]benzodiazepine and 4-(difluoroethyl)phenyl-6H-pyrrolo[1,2-α][1,4]benzodiazepine derivatives” (Janssen Pharmaceutica NV, priority 2010, dated 2017).

Columns and labels:
[1] = tested on: Sporothrix schenkii B62482; test: Antifungal activity in vitro (resazurin susceptibility screen), Inf. A; assay type: cell-based; settings: 27 °C, 4 days, resa time 24 hours; for IC50: Sporothrix, B62482, Sporothrix schenkii B62482; for pIC50 Inf. A: Sporothrix schenkii B62482
Description: (§1) The standard susceptibility screen was performed in 96-well plates (U-bottom, Greiner Bio-One). Serial dilutions (2-fold or 4-fold) of 20 mM compound stock solutions were made in 100% DMSO, followed by an intermediate dilution step in water. These serial dilutions (10 μl) were then spotted onto test-plates that could be stored in the dark at 4° C. for a maximum period of 2 weeks. An adequate broad dose-range was included with 64 μM as the highest in-test concentration. The culture medium RPMI-1640 was supplemented with L-glutamine, 2% glucose and buffered with 3-(N-morpholino)-propanesulfonic acid (MOPS) at pH 7.0±0.1. The different fungal species/isolates (Table 3a) were cryopreserved and 1/1000 diluted in medium just prior to use. A standard inoculum of 200 μl containing 10^3 colony-forming unit (cfu) was then added to each well. A positive control (100% growth=fungal culture without antifungal) and a negative control (0% growth=RPMI-MOPS medium) were included on each plate. Optimal incubation time and temperature were dependent on the fungal species and vary from 24 h for yeasts (37° C.) to one week or more for dermatophytes (27° C.). Inhibition of fungal growth was measured after adding 10 μl of 0.005% (w/v) resazurin (Sigma Aldrich) to each well, based on the principle that living cells convert the non-fluorescent blue resazurin into the pink and fluorescent resorufin, allowing fluorimetric reading (λhd ex 550 nm and μem 590 nm) after an additional incubation period (‘resa’ time mentioned in Table 3a). [table]

Microsporum canis B68128 = test: Antifungal activity in vitro (resazurin susceptibility screen), Inf. B; assay type: cell-based; settings: 27 °C, 9 days, resa time 24 hours; for IC50: Microsporum canis, B68128, Microsporum canis B68128; for pIC50 Inf. B: Microsporum canis B68128
Description: as §1

[2] = tested on: Trichophyton rubrum B68183; test: Antifungal activity in vitro (resazurin susceptibility screen), Inf. C; assay type: cell-based; settings: 27 °C, 7 days, resa time 24 hours; for IC50: Trichophyton rubrum, B68183, Trichophyton rubrum B68183; for pIC50 Inf. C: Trichophyton rubrum B68183
Description: as §1

[3] = tested on: Candida parapsilosis B66126; test: Antifungal activity in vitro (resazurin susceptibility screen), Inf. D; assay type: cell-based; settings: 37 °C, 24 hours, resa time 4 hours; for IC50: Lodderomyces parapsilosis, B66126, Candida parapsilosis B66126; for pIC50 Inf. D: Candida parapsilosis B66126
Description: as §1

[4] = tested on: Aspergillus fumigatus B42928; test: Antifungal activity in vitro (resazurin susceptibility screen), Inf. E; assay type: cell-based; settings: 27 °C, 48 hours, resa time 17 hours; for IC50: Aspergillus fumigatus, B42928, Aspergillus fumigatus B42928; for pIC50 Inf. E: Aspergillus fumigatus B42928
Description: as §1

[5] = tested on: Cryptococcus neoformans B66663; test: Antifungal activity in vitro (resazurin susceptibility screen), Inf. F; assay type: cell-based; settings: 37 °C, 24 hours, resa time 4 hours; for IC50: Cryptococcus neoformans, B66663, Cryptococcus neoformans B66663; for pIC50 Inf. F: Cryptococcus neoformans B66663
Description: as §1

[6] = tested on: Trichophyton mentagrophytes B70554; test: Antifungal activity in vitro (resazurin susceptibility screen), Inf. G; assay type: cell-based; settings: 27 °C, 7 days, resa time 24 hours; for IC50: Trichophyton mentagrophytes, B70554, Trichophyton mentagrophytes B70554; for pIC50 Inf. G: Trichophyton mentagrophytes B70554
Description: as §1

[7] = tested on: Scedosporium apiospermum IHEM3817; test: Antifungal activity in vitro (resazurin susceptibility screen), Inf. H; assay type: cell-based; settings: 37 °C, 48 hours, resa time 17 hours; for IC50: Scedosporium apiospermum, IHEM3817, Scedosporium apiospermum IHEM3817
Description: as §1

Rhizopus oryzae IHEM5223 = test: Antifungal activity in vitro (resazurin susceptibility screen), Inf. J; assay type: cell-based; settings: Rhizopus arrhizus, 37 °C, 24 hours, resa time 6 hours
Description: as §1

[8] = tested on: Rhizomucor miehei IHEM13391; test: Antifungal activity in vitro (resazurin susceptibility screen), Inf. K; assay type: cell-based; settings: 37 °C, 48 hours, resa time 17 hours; for IC50: Rhizomucor miehei, IHEM13391, Rhizomucor miehei IHEM13391
Description: as §1

[9] = tested on: Mucor circinelloides IHEM21105; test: Antifungal activity in vitro (resazurin susceptibility screen), Inf. L; assay type: cell-based; settings: 27 °C, 48 hours, resa time 17 hours
Description: as §1

[10] = tested on: Scedosporium prolificans IHEM21157; test: Antifungal activity in vitro (resazurin susceptibility screen), Inf. I; assay type: cell-based; settings: Lomentospora prolificans, 37 °C, 48 hours, resa time 17 hours
Description: as §1

Row | SMILES | IC50 [1] | IC50 (Microsporum canis B68128) | IC50 [2] | IC50 [3] | IC50 [4] | IC50 [5] | IC50 [6] | melting point | IC50 [7] | IC50 (Rhizopus oryzae IHEM5223) | IC50 [8] | IC50 [9] | IC50 [10] | also measured
1 | CC(F)(F)c1cc(C2=NCc3c(F)cc(F)cc3-n3cccc32)ccc1F [Compound 23, 4-[3-(1,1-difluoroethyl)-4-fluorophenyl]-7,9-difluoro-6H-pyrrolo[1,2-a][1,4]-benzodiazepine] | 9550 nM | 417 nM | 129 nM | 3630 nM | 537 nM | > 64600 nM | 794 nM | 143.2 to 144.3 °C | 182 nM | > 64600 nM | > 64600 nM | > 64600 nM | 100 nM | 
2 | CC(F)(F)c1ccc(C2NCc3c(Cl)cc(F)cc3-n3cccc32)cc1.Cl (stereo not shown) [Compound 24, 7-chloro-4-[4-(1,1-difluoroethyl)phenyl]-9-fluoro-5,6-dihydro-4H-pyrrolo[1,2-a][1,4]-benzodiazepine.HCl] | > 64600 nM | 7760 nM | 617 nM | 2630 nM | 11500 nM | > 64600 nM | 1700 nM | 240 to 240.7 °C |  |  |  |  |  | 
3 | CC(F)(F)c1ccc(C2=NCc3c(Cl)cc(F)cc3-n3cccc32)cc1 [Compound 27, 7-chloro-4-[4-(1,1-difluoroethyl)phenyl]-9-fluoro-6H-pyrrolo[1,2-a][1,4]benzodiazepine] | 2450 nM | 513 nM | 288 nM | 1820 nM | 501 nM | 1020 nM | 1510 nM |  | 437 nM | > 64600 nM | 8320 nM | > 64600 nM | 100 nM | 
4 | CC(F)(F)c1ccc(C2NCc3c(Cl)cccc3-n3cccc32)cc1.Cl [Compound 3, (4R)-7-chloro-4-[4-(1,1-difluoroethyl)phenyl]-5,6-dihydro-4H-pyrrolo[1,2-a][1,4]-benzodiazepine.HCl] |  |  |  |  |  |  |  | 206.3 to 206.8 °C |  |  |  |  |  | pIC50 Inf. A [1]: <4.19; pIC50 Inf. B (Microsporum canis B68128): 6.30; pIC50 Inf. C [2]: 6.96; pIC50 Inf. D [3]: 5.58; pIC50 Inf. E [4]: 5.70; pIC50 Inf. F [5]: 5.26; pIC50 Inf. G [6]: 6.36; pIC50 Inf. H ([7]; Scedosporium apiospermum IHEM3817): 5.13; pIC50 Inf. K ([8]; Rhizomucor miehei IHEM13391): 4.59
5 | CC(F)(F)c1ccc(C2NCc3c(Cl)cccc3-n3cccc32)cc1.Cl [Compound 2, (4S)-7-chloro-4-[4-(1,1-difluoroethyl)phenyl]-5,6-dihydro-4H-pyrrolo[1,2-a][1,4]-benzodiazepine.HCl] |  |  |  |  |  |  |  | 206.7 to 207.6 °C |  |  |  |  |  | pIC50 Inf. A [1]: <4.19; pIC50 Inf. B (Microsporum canis B68128): 5.09; pIC50 Inf. C [2]: 5.82; pIC50 Inf. D [3]: <4.19; pIC50 Inf. E [4]: <4.19; pIC50 Inf. F [5]: <4.19; pIC50 Inf. G [6]: 5.43

Continued, in another order:

Row | IC50 [1] | IC50 (Microsporum canis B68128) | IC50 [2] | IC50 [3] | IC50 [4] | IC50 [5] | IC50 [6] | melting point | IC50 [7] | IC50 (Rhizopus oryzae IHEM5223) | IC50 [8] | IC50 [9] | IC50 [10] | SMILES | also measured
6 | > 64600 nM | 3980 nM | 3020 nM | > 64600 nM | > 64600 nM | > 64600 nM | 60300 nM | 162.3 to 163.5 °C |  |  |  |  |  | CC(F)(F)c1ccc(C2=NCc3c(Cl)ccc(Cl)c3-n3cccc32)cc1 [Compound 8, 7,10-dichloro-4-[4-(1,1-difluoroethyl)phenyl]-6H-pyrrolo[1,2-a][1,4]benzodiazepine] | 
7 | 2630 nM | 17400 nM | 5890 nM | > 64600 nM | 933 nM | 1410 nM | 2450 nM | 132.1 to 134.2 °C | > 64600 nM | > 64600 nM | > 64600 nM | > 64600 nM |  | CC(F)(F)c1ccc(C2=NCc3cc(Cl)cc(Cl)c3-n3cccc32)cc1 [Compound 6, 8,10-dichloro-4-[4-(1,1-difluoroethyl)phenyl]-6H-pyrrolo[1,2-a][1,4]benzodiazepine] | 
8 | 6170 nM | 1660 nM | 1660 nM | 2750 nM | 2000 nM | 1290 nM | 1660 nM | 145.3 to 147.4 °C | > 64600 nM | > 64600 nM | > 64600 nM | > 64600 nM | > 64600 nM | CC(F)(F)c1ccc(C2=NCc3c(F)cc(Cl)cc3-n3cccc32)cc1 [Compound 32, 9-chloro-4-[4-(1,1-difluoroethyl)phenyl]-7-fluoro-6H-pyrrolo[1,2-a][1,4]benzodiazepine] | 
9 | > 64600 nM | 110 nM | 85.1 nM | > 64600 nM | 501 nM | > 64600 nM | 191 nM | 186.3 to 186.6 °C | > 64600 nM | > 64600 nM | > 64600 nM | > 64600 nM | > 64600 nM | CC(F)(F)c1ccc(C2=NCc3c(Cl)cccc3-n3cccc32)cc1F [Compound 29, 7-chloro-4-[4-(1,1-difluoroethyl)-3-fluorophenyl]-6H-pyrrolo[1,2-a][1,4]benzodiazepine] | 
10 | 2340 nM | 437 nM | 468 nM | 3470 nM | 501 nM | 295 nM | 1260 nM | 162.5 to 164.8 °C | 10500 nM | > 64600 nM | > 64600 nM | > 64600 nM | 8710 nM | CC(F)(F)c1ccc(C2=NCc3c(Cl)cc(F)cc3-n3cccc32)cc1F [Compound 31, 7-chloro-4-[4-(1,1-difluoroethyl)-3-fluorophenyl]-9-fluoro-6H-pyrrolo[1,2-a][1,4]-benzodiazepine] | 
11 | > 64600 nM | 7760 nM | 7760 nM | > 64600 nM | > 64600 nM | > 64600 nM | > 64600 nM | 140.9 to 142.1 °C |  |  |  |  |  | CC(F)(F)c1ccc(C2=NCc3ccc(Cl)c(Cl)c3-n3cccc32)cc1 [Compound 22, 9,10-dichloro-4-[4-(1,1-difluoroethyl)phenyl]-6H-pyrrolo[1,2-a][1,4]benzodiazepine] | 
12 | 3720 nM | 479 nM | 195 nM | 2450 nM | 126 nM | 1580 nM | 692 nM |  | 89.1 nM | > 64600 nM | 6610 nM | > 64600 nM | 50.1 nM | CC(F)(F)c1cc(C2=NCc3c(Cl)cccc3-n3cccc32)ccc1F [Compound 21, 7-chloro-4-[3-(1,1-difluoroethyl)-4-fluorophenyl]-6H-pyrrolo[1,2-a][1,4]benzodiazepine] | 
13 | > 64600 nM | 513 nM | 145 nM | 12900 nM | 112 nM | > 64600 nM | 794 nM |  | 575 nM | > 64600 nM | 26900 nM | > 64600 nM | 158 nM | CC(F)(F)c1cc(C2=NCc3c(F)cccc3-n3cccc32)ccc1F [Compound 20, 4-[3-(1,1-difluoroethyl)-4-fluorophenyl]-7-fluoro-6H-pyrrolo[1,2-a][1,4]benzodiazepine] | 
